Among the data in patent US11053241B2, “TYK2 inhibitors and uses thereof” (Nimbus Lakshmi, Inc., priority 2018, dated 2021) are Kd, IC50 and inhibition values, retold here.

Bounds are passed on as bounds.

Experiment [1] concerns the target human TYK2 (JH2domain-pseudokinase) (Homo sapiens (Human), UniProt P29597). Briefly: TYK2 JH2 Domain Binding Assay (KINOMEscan). The following applies: 11-point 3-fold dilution, top concentration 30,000 nM, duplicate. The method in brief: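 Competition binding used an NFkB-DNA-tagged fusion of TYK2 JH2 (G556–D888) expressed in HEK293 extracts against an immobilised ligand, 1 h at room temperature. Bead-bound kinase was quantified by qPCR. Kd came from an 11-point 3-fold series with a 30,000 nM top concentration and 0.9% DMSO, Hill slope −1, run in duplicate.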

Experiment [2] has as its system IL-12 induced STAT4 phophorylation mediated by TYK2/JAK2 (heterodimeric complex). Briefly: IL-12 Induced pSTAT4 in Human PBMC. The format is cell-based. Particulars: 1.7 ng/mL IL-12 for 30 minutes, 1 hr compound preincubation. How it is done:
Human PBMC were isolated from buffy coat and were stored frozen for assays as needed. Cells for assay were thawed and resuspended in complete media containing serum, then cells were diluted to 1.67 E6 cells/mL so that 120 μl per well is 200,000 cells. 15 μl of compound or DMSO was added to the well at the desired concentrations and incubated at 1 hr at 37 C. 15 μl of stimulus (final concentration of 1.7 ng/mL IL-12) was added for 30 minutes prior to pSTAT4 and total STAT4 analysis using cell lysates prepared and analyzed by MSD reagents as per manufacturer protocol. The final DMSO concentration of compound in the assay was 0.1%.
The IL-12 Induced pSTAT4 assay evaluates the inhibition of IL-12 induced STAT4 phophorylation mediated by TYK2/JAK2 (heterodimeric complex).

Experiment [3] concerns the target JAK2 kinase domain (JH1) (Homo sapiens (Human), UniProt O60674). Nature of the experiment: JAK2 Radioactive Kinase Assay. The format is biochemical. Particulars: compound at 10 μM; ATP at 10 μM; substrate poly[Glu:Tyr](4:1). Here is the method:
(§1) Peptide substrate, [KKSRGDYMTMQIG], (20 μM) was prepared in reaction buffer (20 mM Hepes pH 7.5, 10 mM MgCl2, 1 mM EGTA, 0.02% Brij35, 0.02 mg/mL BSA, 0.1 mM […], 2 mM DTT, 1% DMSO). TYK2 (Invitrogen) kinase was added, followed by compounds in DMSO. ^33PATP was added to initiate the reaction in ATP at 10 μM. The kinase reaction was incubated for 120 min at room temp and reactions were spotted onto P81 ion exchange paper (Whatman #3698-915), and then washed extensively in 0.75% phosphoric acid, prior to reading the radioactivity counts. For JAK2 (Invitrogen) kinase assay the peptide substrate poly[Glu:Tyr](4:1), 0.2 mg/ml was used, in the reaction carried out the same as for TYK2.
(§2) The TYK2 and JAK2 radioactive kinase assay measures the percent inhibition at the TYK2 kinase domain (JH1) and the percent inhibition at the JAK2 kinase domain (JH1). Results of the assay are expressed as percent inhibition at 10 μM.

Experiment [4] concerns the target TYK2 kinase domain (JH1) (Homo sapiens (Human), UniProt P29597). Nature of the experiment: TYK2 Radioactive Kinase Assay. The format is biochemical. The following applies: compound at 10 μM; ATP at 10 μM; 120 min at room temp. Here is the method:
as §1, §2

TYK2 kinase domain (JH1), sequence (P29597 897-1176): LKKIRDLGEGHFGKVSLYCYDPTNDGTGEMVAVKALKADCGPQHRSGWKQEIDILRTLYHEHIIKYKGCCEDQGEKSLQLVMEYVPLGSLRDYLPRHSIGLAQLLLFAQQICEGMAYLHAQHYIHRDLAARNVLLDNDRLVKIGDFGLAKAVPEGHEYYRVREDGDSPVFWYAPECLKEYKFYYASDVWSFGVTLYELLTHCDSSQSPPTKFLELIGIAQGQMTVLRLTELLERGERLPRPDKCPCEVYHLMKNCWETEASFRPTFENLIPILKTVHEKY
JAK2 kinase domain (JH1), sequence (O60674 849-1124): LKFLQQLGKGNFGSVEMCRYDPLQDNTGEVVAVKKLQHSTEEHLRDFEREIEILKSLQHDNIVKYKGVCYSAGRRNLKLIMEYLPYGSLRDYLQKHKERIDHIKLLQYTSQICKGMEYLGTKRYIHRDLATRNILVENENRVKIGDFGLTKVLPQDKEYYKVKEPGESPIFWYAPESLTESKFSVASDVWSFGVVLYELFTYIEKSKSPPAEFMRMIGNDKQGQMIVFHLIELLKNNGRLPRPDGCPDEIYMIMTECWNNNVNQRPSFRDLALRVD
human TYK2 (JH2domain-pseudokinase), sequence (P29597 556-888): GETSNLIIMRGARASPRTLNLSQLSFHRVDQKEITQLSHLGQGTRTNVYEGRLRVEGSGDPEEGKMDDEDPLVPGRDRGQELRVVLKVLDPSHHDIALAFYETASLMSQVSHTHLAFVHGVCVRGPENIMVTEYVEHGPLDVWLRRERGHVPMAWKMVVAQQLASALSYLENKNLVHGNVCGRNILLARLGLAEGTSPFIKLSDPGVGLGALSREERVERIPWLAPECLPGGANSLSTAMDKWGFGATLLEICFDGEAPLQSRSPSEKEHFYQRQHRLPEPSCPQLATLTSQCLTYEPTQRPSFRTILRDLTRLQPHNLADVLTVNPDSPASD

One may read the Kd as a measure of binding affinity in units of concentration. One may read the IC50 as the concentration needed to halve the response being measured. The low end stands for inhibition by little substance, the high end for a need for much substance. The compound `CNC(=O)c1cnc(NC(=O)C2CC2)c2[nH]c(-c3ccc(C(=O)N4CCC4)cc3F)cc12` [Compound I-42, 2-(4-(azetidine-1-carbonyl)-2-fluorophenyl)-7-(cyclopropanecarboxamido)-N-methyl-1H-pyrrolo[2,3-c]pyridine-4-carboxamide] had a Kd in experiment [1] of under 0.2 nM. The compound further returned an IC50 in experiment [2] of under 100 nM.

In experiment [1], `CNC(=O)c1cnc(NC(=O)C2CC2)c2[nH]c(-c3cccc(-c4cn(C)cn4)c3F)cc12` [Compound I-48, 7-(cyclopropanecarboxamido)-2-(2-fluoro-3-(1-methyl-1H-imidazol-4-yl)phenyl)-N-methyl-1H-pyrrolo[2,3-c]pyridine-4-carboxamide] had a Kd of under 0.2 nM. Moreover, in experiment [2], the IC50 was under 100 nM.

What is called inhibition is the percentage by which the read-out fell short of the control. On to `CNC(=O)c1cnc(NC(=O)C2CC2)c2[nH]c(-c3cccc(C4=NC(C)(C)CS4)c3)cc12` [Compound I-11, 7-(cyclopropanecarboxamido)-2-(3-(4,4-dimethyl-4,5-dihydrothiazol-2-yl)phenyl)-N-methyl-1H-pyrrolo[2,3-c]pyridine-4-carboxamide], for which the inhibition at 10 µM in experiment [3] and in experiment [4] was under 50% in each case. In experiment [1], this compound showed a Kd of 0.2 to 1 nM.

As to `CNC(=O)c1cnc(NC(=O)C2CC2)c2[nH]c(-c3ccccc3C3(S(C)(=O)=O)CC3)cc12` [Compound I-5, 7-(cyclopropanecarboxamido)-N-methyl-2-(2-(1-(methylsulfonyl)cyclopropyl)phenyl)-1H-pyrrolo[2,3-c]pyridine-4-carboxamide], the inhibition at 10 µM in experiment [3] and in experiment [4] was under 50% throughout. For the same compound, the Kd in experiment [1] fell in the range of 1 to 10 nM.

For the compound `CNC(=O)CCCNc1ccc(-c2cc3c(C(=O)NC)cnc(NC(=O)C4CC4)c3[nH]2)c(OC)c1` [Compound I-30, 7-(cyclopropanecarboxamido)-2-(2-methoxy-4-((4-(methylamino)-4-oxobutyl)amino)phenyl)-N-methyl-1H-pyrrolo[2,3-c]pyridine-4-carboxamide], the inhibition at 10 µM in experiment [3] and in experiment [4] was under 50% each time. The Kd in experiment [1] was under 0.2 nM.

`[2H]C([2H])([2H])NC(=O)c1cnc(NC(=O)C2CC2)c2[nH]c(-c3ccccc3)cc12` [Compound I-3, 7-(cyclopropanecarboxamido)-N-(methyl-d3)-2-phenyl-1H-pyrrolo[2,3-c]pyridine-4-carboxamide]: the inhibition at 10 µM in experiment [3] and in experiment [4] was under 50% in each case. The compound further registered an equilibrium dissociation constant (Kd) in experiment [1] of 0.2 to 1 nM.

In the case of `CCn1cc(-c2cc3c(C(=O)NC)cnc(NC(=O)C4CC4)c3[nH]2)ccc1=O` [Compound I-31, 7-(cyclopropanecarboxamido)-2-(1-ethyl-6-oxo-1,6-dihydropyridin-3-yl)-N-methyl-1H-pyrrolo[2,3-c]pyridine-4-carboxamide], the inhibition at 10 µM in experiment [3] and in experiment [4] was under 50% in each case. The same compound gave a dissociation constant (Kd) in experiment [1] of 1 to 10 nM.

As for `CNC(=O)c1cnc(NC(=O)C2CC2)c2[nH]c(-c3cccc(-c4ncn(C)n4)c3F)cc12` [Compound I-36, 7-(cyclopropanecarboxamido)-2-(2-fluoro-3-(1-methyl-1H-1,2,4-triazol-3-yl)phenyl)-N-methyl-1H-pyrrolo[2,3-c]pyridine-4-carboxamide], the inhibition at 10 µM in experiment [3] and in experiment [4] was under 50% throughout. Moreover, in experiment [1], the Kd is under 0.2 nM.

In the case of `[2H]C([2H])([2H])NC(=O)c1cnc(NC(=O)C2CC2)c2[nH]c(-c3cccc(-c4ncn(C)n4)n3)cc12` [Compound I-35, 7-(cyclopropanecarboxamido)-N-(methyl-d3)-2-(6-(1-methyl-1H-1,2,4-triazol-3-yl)pyridin-2-yl)-1H-pyrrolo[2,3-c]pyridine-4-carboxamide], the inhibition at 10 µM in experiment [3] and in experiment [4] was under 50% in each case. For the same compound, in experiment [1], the Kd fell in the range of 0.2 to 1 nM.

In the case of `CNC(=O)c1cnc(NC(=O)C2CC2)c2[nH]c(-c3ccc(C(=O)N4CCC4)cc3OC)cc12` [Compound I-24, 2-(4-(azetidine-1-carbonyl)-2-methoxyphenyl)-7-(cyclopropanecarboxamido)-N-methyl-1H-pyrrolo[2,3-c]pyridine-4-carboxamide], the inhibition at 10 µM in experiment [3] and in experiment [4] was under 50% in each case. Further, the Kd in experiment [1] was under 0.2 nM. In experiment [2], the half-inhibitory concentration (IC50) was under 100 nM.

For the compound `CNC(=O)c1cnc(NC(=O)C2CC2)c2[nH]c(-c3cc(-c4nccs4)ccn3)cc12` [Compound I-14, 7-(cyclopropanecarboxamido)-N-methyl-2-(4-(thiazol-2-yl)pyridin-2-yl)-1H-pyrrolo[2,3-c]pyridine-4-carboxamide], the inhibition at 10 µM in experiment [3] and in experiment [4] was under 50% throughout. Moreover, in experiment [1], the dissociation constant Kd lay within 0.2 to 1 nM.

`CNC(=O)c1cnc(NC(=O)C2CC2)c2[nH]c(-c3cccc(-c4nnn(C)n4)c3F)cc12` [Compound I-52, 7-(cyclopropanecarboxamido)-2-(2-fluoro-3-(2-methyl-2H-tetrazol-5-yl)phenyl)-N-methyl-1H-pyrrolo[2,3-c]pyridine-4-carboxamide] gave a Kd in experiment [1] of under 0.2 nM. The compound also yielded an IC50 in experiment [2] of under 100 nM.

Regarding `CNC(=O)c1cnc(NC(=O)C2CC2)c2[nH]c(-c3cc(-c4ncn(C)n4)ccn3)cc12` [Compound I-13, 7-(cyclopropanecarboxamido)-N-methyl-2-(4-(1-methyl-1H-1,2,4-triazol-3-yl)pyridin-2-yl)-1H-pyrrolo[2,3-c]pyridine-4-carboxamide], the inhibition at 10 µM in experiment [3] and in experiment [4] was under 50% in each case. The Kd in experiment [1] is under 0.2 nM.

In turn, `CNC(=O)c1cnc(NC(=O)C2CC2)c2[nH]c(-c3cccn(-c4ncc(C)s4)c3=O)cc12` [Compound I-54, 7-(cyclopropanecarboxamido)-N-methyl-2-(1-(5-methylthiazol-2-yl)-2-oxo-1,2-dihydropyridin-3-yl)-1H-pyrrolo[2,3-c]pyridine-4-carboxamide] displayed a Kd in experiment [1] of under 0.2 nM. Also, the IC50 in experiment [2] fell in the range of 100 to 500 nM.

Turning to `CCOc1ncccc1-c1cc2c(C(=O)NC)cnc(NC(=O)C3CC3)c2[nH]1` [Compound I-33, 7-(cyclopropanecarboxamido)-2-(2-ethoxypyridin-3-yl)-N-methyl-1H-pyrrolo[2,3-c]pyridine-4-carboxamide], the inhibition at 10 µM in experiment [3] and in experiment [4] was under 50% in each case. In addition, the Kd in experiment [1] was in the range of 0.2 to 1 nM.

With `CNC(=O)c1cnc(NC(=O)C2CC2)c2[nH]c(-c3cc(-n4ccc(C)n4)ccn3)cc12` [Compound I-17, 7-(cyclopropanecarboxamido)-N-methyl-2-(4-(3-methyl-1H-pyrazol-1-yl)pyridin-2-yl)-1H-pyrrolo[2,3-c]pyridine-4-carboxamide], the inhibition at 10 µM in experiment [3] and in experiment [4] was under 50% throughout. Besides, the dissociation constant Kd in experiment [1] was 0.2 to 1 nM.

On to `CNC(=O)c1cnc(NC(=O)C2CC2)c2[nH]c(-c3cccc(-n4cnnc4)c3)cc12` [Compound I-18, 2-(3-(4H-1,2,4-triazol-4-yl)phenyl)-7-(cyclopropanecarboxamido)-N-methyl-1H-pyrrolo[2,3-c]pyridine-4-carboxamide], for which the inhibition at 10 µM in experiment [3] and in experiment [4] was under 50% each time. Further, in experiment [1], the Kd was 0.2 to 1 nM.

Regarding `CNC(=O)c1cnc(NC(=O)C2CC2)c2[nH]c(-c3cc(-c4ccn(C)n4)cnc3OC3CC3)cc12` [Compound I-38, 7-(cyclopropanecarboxamido)-2-(2-cyclopropoxy-5-(1-methyl-1H-pyrazol-3-yl)pyridin-3-yl)-N-methyl-1H-pyrrolo[2,3-c]pyridine-4-carboxamide], the inhibition at 10 µM in experiment [3] and in experiment [4] was under 50% in each case. The compound further returned a Kd in experiment [1] of 1 to 10 nM.
